Measurements: PubChem BioAssay AID2060896 (Molecular Pharmacology Branch, DTP, NCI, 2025)

Tested on: 941728-121-R-J1-PDC complex spheroid viability
Test: Anticancer human tumor 941728-121-R-J1-PDC patient-derived lung adenocarcinoma cell line growth inhibition [RAS]
Details: for IC50: curve of first compound; for viability, T/C: stronger effect = lower value
How it was run: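 Tumour cells grown as complex spheroids with HUVEC endothelial cells and mesenchymal stem cells, treated with RAS pathway inhibitor combinations. Each agent spans half-log steps from near clinical Cmax, or 10 microM where Cmax is unknown.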
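Further: spheroids exposed to compounds for 7 days before readout.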
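Wherever viability, T/C is given: 100% = DMSO vehicle control viability.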

**Q.** Which results are given for `CCc1c2c(nc3ccc(O)cc13)-c1cc3c(c(=O)n1C2)COC(=O)[C@]3(O)CC` + C#Cc1c(F)ccc2cc(O)cc(-c3ncc4c(N5CC6CCC(C5)N6)nc(OCC56CCCN5CC(F)C6)nc4c3F)c12?
**A.** IC50 (second compound 0.0316 µM): 26.2 nM; IC50 (second compound 0.1 µM): 12.2 nM; IC50 (second compound 0.316 µM): < 0.949 nM; IC50 (second compound 1 µM): < 0.949 nM; IC50 (second compound 3.16 µM): < 0.949 nM; IC50 (second compound 10 µM): < 0.949 nM; viability, T/C (second compound 0.0316 µM, first compound 0.000949 µM): 77.8%; viability, T/C (second compound 0.0316 µM, first compound 0.003 µM): 61.1%; viability, T/C (second compound 0.0316 µM, first compound 0.00949 µM): 54.1%; viability, T/C (second compound 0.0316 µM, first compound 0.03 µM): 49.8%; viability, T/C (second compound 0.0316 µM, first compound 0.0949 µM): 51.6%; viability, T/C (second compound 0.0316 µM, first compound 0.3 µM): 40.5%; viability, T/C (second compound 0.1 µM, first compound 0.000949 µM): 69.4%; viability, T/C (second compound 0.1 µM, first compound 0.003 µM): 58.8%; viability, T/C (second compound 0.1 µM, first compound 0.00949 µM): 45%; viability, T/C (second compound 0.1 µM, first compound 0.03 µM): 53.6%; viability, T/C (second compound 0.1 µM, first compound 0.0949 µM): 48.4%; viability, T/C (second compound 0.1 µM, first compound 0.3 µM): 39.9%; viability, T/C (second compound 0.316 µM, first compound 0.000949 µM): 52.9%; viability, T/C (second compound 0.316 µM, first compound 0.003 µM): 42.4%; viability, T/C (second compound 0.316 µM, first compound 0.00949 µM): 42.5%; viability, T/C (second compound 0.316 µM, first compound 0.03 µM): 42.6%; viability, T/C (second compound 0.316 µM, first compound 0.0949 µM): 44.7%; viability, T/C (second compound 0.316 µM, first compound 0.3 µM): 34.6%; viability, T/C (second compound 1 µM, first compound 0.000949 µM): 34.8%; viability, T/C (second compound 1 µM, first compound 0.003 µM): 37.9%; viability, T/C (second compound 1 µM, first compound 0.00949 µM): 30.6%; viability, T/C (second compound 1 µM, first compound 0.03 µM): 31.8%; viability, T/C (second compound 1 µM, first compound 0.0949 µM): 32.4%; viability, T/C (second compound 1 µM, first compound 0.3 µM): 29%; viability, T/C (second compound 3.16 µM, first compound 0.000949 µM): 25.6%; viability, T/C (second compound 3.16 µM, first compound 0.003 µM): 26.1%; viability, T/C (second compound 3.16 µM, first compound 0.00949 µM): 26.7%; viability, T/C (second compound 3.16 µM, first compound 0.03 µM): 23.5%; viability, T/C (second compound 3.16 µM, first compound 0.0949 µM): 21.4%; viability, T/C (second compound 3.16 µM, first compound 0.3 µM): 19%; viability, T/C (second compound 10 µM, first compound 0.000949 µM): 21.9%; viability, T/C (second compound 10 µM, first compound 0.003 µM): 18.5%; viability, T/C (second compound 10 µM, first compound 0.00949 µM): 18.6%; viability, T/C (second compound 10 µM, first compound 0.03 µM): 14.8%; viability, T/C (second compound 10 µM, first compound 0.0949 µM): 13.3%; viability, T/C (second compound 10 µM, first compound 0.3 µM): 8.73%

**Q.** For `C=CC(=O)Nc1cc(Nc2nccc(-c3cn(C)c4ccccc34)n2)c(OC)cc1N(C)CCN(C)C` + C=CC(=O)N1CCN(c2nc(OCC3CCCN3C)nc3c(F)c(-c4nc(N)cc(C)c4C(F)(F)F)c(Cl)cc23)C(C)C1, which IC50 (second compound 0.00316 µM) is on record?
**A.** < 3.16 nM

**Q.** And the IC50 (second compound 0.01 µM)?
**A.** < 3.16 nM

**Q.** And the IC50 (second compound 0.0316 µM)?
**A.** < 3.16 nM

**Q.** And the IC50 (second compound 0.1 µM)?
**A.** < 3.16 nM

**Q.** What about the IC50 (second compound 0.316 µM) of the same compound?
**A.** < 3.16 nM

**Q.** What about the IC50 (second compound 1 µM) of the same compound?
**A.** < 3.16 nM

**Q.** What about the viability, T/C (second compound 0.00316 µM, first compound 0.00316 µM) of the same compound?
**A.** 17.3%

**Q.** What about the viability, T/C (second compound 0.00316 µM, first compound 0.01 µM) of the same compound?
**A.** 25.6%

**Q.** What about the viability, T/C (second compound 0.00316 µM, first compound 0.0316 µM) of the same compound?
**A.** 17.1%

**Q.** What about the viability, T/C (second compound 0.00316 µM, first compound 0.1 µM) of the same compound?
**A.** 21.1%

**Q.** And the viability, T/C (second compound 0.00316 µM, first compound 0.316 µM)?
**A.** 17.6%

**Q.** What about the viability, T/C (second compound 0.00316 µM, first compound 1 µM) of the same compound?
**A.** 16.7%

**Q.** And the viability, T/C (second compound 0.01 µM, first compound 0.00316 µM)?
**A.** 20.4%

**Q.** What about the viability, T/C (second compound 0.01 µM, first compound 0.01 µM) of the same compound?
**A.** 18.3%

**Q.** What about the viability, T/C (second compound 0.01 µM, first compound 0.0316 µM) of the same compound?
**A.** 19.5%

**Q.** What about the viability, T/C (second compound 0.01 µM, first compound 0.1 µM) of the same compound?
**A.** 18.2%

**Q.** And the viability, T/C (second compound 0.01 µM, first compound 0.316 µM)?
**A.** 14.4%

**Q.** What about the viability, T/C (second compound 0.01 µM, first compound 1 µM) of the same compound?
**A.** 17.3%

**Q.** And the viability, T/C (second compound 0.0316 µM, first compound 0.00316 µM)?
**A.** 18.4%

**Q.** What about the viability, T/C (second compound 0.0316 µM, first compound 0.01 µM) of the same compound?
**A.** 16.9%

**Q.** And the viability, T/C (second compound 0.0316 µM, first compound 0.0316 µM)?
**A.** 17.2%

**Q.** And the viability, T/C (second compound 0.0316 µM, first compound 0.1 µM)?
**A.** 17.9%

**Q.** What about the viability, T/C (second compound 0.0316 µM, first compound 0.316 µM) of the same compound?
**A.** 17.5%

**Q.** What about the viability, T/C (second compound 0.0316 µM, first compound 1 µM) of the same compound?
**A.** 15.8%

**Q.** And the viability, T/C (second compound 0.1 µM, first compound 0.00316 µM)?
**A.** 21.1%

**Q.** And the viability, T/C (second compound 0.1 µM, first compound 0.01 µM)?
**A.** 19.7%

**Q.** And the viability, T/C (second compound 0.1 µM, first compound 0.0316 µM)?
**A.** 15.5%

**Q.** What about the viability, T/C (second compound 0.1 µM, first compound 0.1 µM) of the same compound?
**A.** 15.8%

**Q.** And the viability, T/C (second compound 0.1 µM, first compound 0.316 µM)?
**A.** 18.7%

**Q.** What about the viability, T/C (second compound 0.1 µM, first compound 1 µM) of the same compound?
**A.** 16.4%

**Q.** What about the viability, T/C (second compound 0.316 µM, first compound 0.00316 µM) of the same compound?
**A.** 19.8%

**Q.** And the viability, T/C (second compound 0.316 µM, first compound 0.01 µM)?
**A.** 18.1%

**Q.** What about the viability, T/C (second compound 0.316 µM, first compound 0.0316 µM) of the same compound?
**A.** 15.7%

**Q.** What about the viability, T/C (second compound 0.316 µM, first compound 0.1 µM) of the same compound?
**A.** 17.1%

**Q.** And the viability, T/C (second compound 0.316 µM, first compound 0.316 µM)?
**A.** 19.7%

**Q.** And the viability, T/C (second compound 0.316 µM, first compound 1 µM)?
**A.** 15.6%

**Q.** What about the viability, T/C (second compound 1 µM, first compound 0.00316 µM) of the same compound?
**A.** 20.6%

**Q.** And the viability, T/C (second compound 1 µM, first compound 0.01 µM)?
**A.** 15.7%

**Q.** And the viability, T/C (second compound 1 µM, first compound 0.0316 µM)?
**A.** 18.2%

**Q.** And the viability, T/C (second compound 1 µM, first compound 0.1 µM)?
**A.** 17.3%

**Q.** What about the viability, T/C (second compound 1 µM, first compound 0.316 µM) of the same compound?
**A.** 18.9%

**Q.** What about the viability, T/C (second compound 1 µM, first compound 1 µM) of the same compound?
**A.** 16.2%
